Values quoted from earlier work in patent US20170189326A1, “Topical Antiaging Polyphenol Compositions” (priority 2015, published 2017).

Tested on: dimethylnitrosamine-induced hepatic injury
Conditions: oral administration, rats

COc1cc(/C=C/C(=O)CC(=O)/C=C/c2ccc(O)c(OC)c2)ccc1O [curcumin]
protection against dimethylnitrosamine-induced hepatic injury: protected
